The subject of experiment [1] is acetaminophen-induced acute hepatic failure. Put plainly: Animal survival in acetaminophen-induced acute hepatic failure, comparison of Mangafodipir, MnTBAP and CuDIPS (Example 7). Conditions: for number of surviving animals: 10 mg/kg bolus 2 h before 1000 mg/kg APAP, n = 12. The format is in vivo, mice. The procedure: The Mangafodipir, the MnTBAP or the CuDIPS are administered in the form of a bolus, in the preventive capacity, 2 hours before the acetaminophen.
Animal survival is monitored for 24 hours after the administration of acetaminophen.

Experiment [2] relates to hepatocellular deficiency. The conditions noted are these: inventors' prior studies (PCT/WO 01/12327; Ferret et al. 2001); cited from earlier work.

The structures appear in SMILES notation.

Consider `O=C(O)c1ccc(-c2c3nc(c(-c4ccc(C(=O)O)cc4)c4ccc([n-]4)c(-c4ccc(C(=O)O)cc4)c4nc(c(-c5ccc(C(=O)O)cc5)c5ccc2[n-]5)C=C4)C=C3)cc1.[Mn+3]` [MnTBAP, Mn(III)-tetrakis(5,10,15,20-benzoic acid)-porphyrin], for which the “number of surviving animals” value worked out at 12 in experiment [1] (time 0 h); 12 in experiment [1] (time 6 h); 12 in experiment [1] (time 8 h); 12 in experiment [1] (time 9 h); 11 in experiment [1] (time 10 h); 10 in experiment [1] (time 11 h). Moreover, the “number of surviving animals” value worked out at 10 in experiment [1] (time 12 h); 10 in experiment [1] (time 13 h); 9 in experiment [1] (time 14 h); 9 in experiment [1] (time 15 h); 8 in experiment [1] (time 16 h); 8 in experiment [1] (time 17 h). Moreover, the “number of surviving animals” value in experiment [1] (time 18 h) was determined as 8; in experiment [1] (time 20 h), 8; in experiment [1] (time 22 h), 7; in experiment [1] (time 24 h), 7. Besides, the “effect on hepatocellular deficiency” value in experiment [2] is “notable preventive and curative effect”.
On to `CC(C)c1cc(C(=O)[O-])c(O)c(C(C)C)c1.CC(C)c1cc(C(=O)[O-])c(O)c(C(C)C)c1.[Cu+2]` [CuDIPS, Cu[II]-[diisopropylsalicylate]], for which the “number of surviving animals” value in experiment [1] (time 0 h) was 12; in experiment [1] (time 6 h), 12; in experiment [1] (time 8 h) it was 11; in experiment [1] (time 9 h), 10; in experiment [1] (time 10 h), 9; in experiment [1] (time 11 h) it was 7. For the same molecule, the “number of surviving animals” value is reported as 7 in experiment [1] (time 12 h); 5 in experiment [1] (time 13 h); 5 in experiment [1] (time 14 h); 5 in experiment [1] (time 15 h); 4 in experiment [1] (time 16 h); 4 in experiment [1] (time 17 h). Moreover, the “number of surviving animals” value in experiment [1] (time 18 h), in experiment [1] (time 20 h), in experiment [1] (time 22 h) and in experiment [1] (time 24 h) was 3 throughout. In addition, in experiment [1] (10 mg/kg preventively, 1000 mg/kg APAP, 24 h), the “effect on survival rate” value is “does not significantly increase the survival rate”. For the same molecule, in experiment [2], the “effect on hepatocellular deficiency” value is reported as “no significant effect”.
